Reference: patent publication US20130053430A1, “MODULATION OF CETP EXPRESSION” (Isis Pharmaceuticals, Inc., priority 2010, published 2013)
e = 2'-O-(2-methoxyethyl) (MOE); d = 2'-deoxy (DNA)

Key:
[1] = tested on: CETP mRNA; assay: Dose response, liver CETP mRNA in huCETP transgenic mice on Western diet (Example 9); type: in vivo, human; conditions: s.c. 6 weeks
Method: Male transgenic mice were maintained on a 12-hour light/dark cycle and were fed ad libitum the Western diet (TD88137; 42% cal from fat, 0.2% cholesterol; Harlan Laboratories, Indianapolis, Ind.). Animals were acclimated for at least 7 days in the research facility before initiation of the experiment and were maintained on this diet throughout the study period. Antisense oligonucleotides (ASOs) were prepared in buffered saline (PBS) and sterilized by filtering through a 0.2 micron filter. Oligonucleotides were dissolved in 0.9% PBS for injection.
(§1) Another group received subcutaneous injections of control oligonucleotide ISIS 141923 at a dose of 50 mg/kg/week for 6 weeks. One group of mice received subcutaneous injections of PBS for 6 weeks. The PBS-injected group served as the control group to which treatment groups were compared.
Twenty four hours after the final dose, the animals were sacrificed and liver tissue was isolated. Liver RNA was isolated for real-time PCR analysis of CETP. The primer probe sets hCETP and hCETP2_LTS00182 were individually used to measure CETP levels. As presented in Table 43, treatment with ISIS 349517 reduced CETP mRNA expression in a dose-dependent manner. Both primer probe sets produced similar results. The RNA expression levels were normalized to murine Cyclophilin. The results are expressed as percent inhibition of CETP mRNA, relative to the PBS control.

[2] = tested on: ABCA1; assay: Liver ABCA1 mRNA expression (Example 9); type: in vivo, mice; conditions: percentage increase or decrease compared to PBS control, s.c. 6 weeks
Method: as §1
Liver RNA was isolated for real-time PCR analysis of ABCA1, ApoAI, and SR-B1. ATP-binding cassette transporter ABCA1 (member 1 of human transporter sub-family ABCA), also known as the cholesterol efflux regulatory protein (CERP) is a protein which in humans is encoded by the ABCA1 gene (Luciani, M. F. et al., Genomics. 1994. 21: 150-9). This transporter is a major regulator of cellular cholesterol and phospholipid homeostasis. Apolipoprotein A-I is a protein that in humans is encoded by the APOA1 gene (Breslow, J. L. et al., Proc. Natl. Acad. Sci. USA 1982. 79: 6861-5). Apolipoprotein A-I is the major protein component of HDL in plasma. The protein promotes cholesterol efflux from tissues to the liver for excretion. Scavenger receptor class B, type I (SR-BI) is an integral membrane protein found in numerous cell types/tissues, including the liver and adrenal (Acton, S. L. et al., J. Biol. Chem. 1994. 269: 21003-21009). It is best known for its role in facilitating the uptake of cholesteryl esters from high-density lipoproteins in the liver. Therefore, all three genes have a role in HDL regulation.
The primer probe set RTS1204 (forward sequence […], designated herein as SEQ ID NO: 122, reverse sequence […], designated herein as SEQ ID NO: 123, probe sequence AGGCCCAGACCTGTAAAGGCGAAGX, with X a fluorophore, designated herein as SEQ ID NO: 124) was used to measure abca1 levels. The primer probe set RTS14737 (forward sequence […], designated herein as SEQ ID NO: 125, reverse sequence […], designated herein as SEQ ID NO: 126, probe sequence CTGCAGGAACGGCTGGGCCCX, with X a fluorophore, designated herein as SEQ ID NO: 127) was used to measure apoA1 levels. The primer probe set mSRB-1 (forward sequence […], designated herein as SEQ ID NO: 128, reverse sequence ATGCGACTTGTCAGGCTGG, designated herein as SEQ ID NO: 129, probe sequence CGTGGAGAACCGCAGCCTCCATTX, with X a fluorophore, designated herein as SEQ ID NO: 130) was used to measure sr-b1 levels. The results are presented in Table 44 as percentage increase or decrease in the respective expression levels compared to the PBS control. Both primer probe sets produced similar results. The RNA expression levels were normalized to murine Cyclophilin. Treatment with ISIS 349517 caused an increase in ApoA1 and SR-B1 levels.

[3] = tested on: CETP mRNA; assay: Liver CETP mRNA in huApoB/huCETP/mLDLr mouse model for cardiovascular disease (Example 7); type: in vivo, human; conditions: huApoB+/−huCETP+/−mLDLr+/− mice (Groups B-E); ASO 25 mg/kg s.c. twice per week, nicotinic acid 2 g/kg/day s.c. + 1% in diet, 6 weeks; relative to PBS control (Group A)
Description: The saline-injected group served as the control group to which oligonucleotide-treated groups were compared. […] This group served a negative control for the effects of the antisense oligonucleotides against CETP. The groups are further described in Table 27, and are designated letters A-F, by which they will be referred from henceforth.

[4] = Organ weights (Example 6); type: in vivo, mice; conditions: 50 mg/kg s.c. twice per week for 6 weeks, end of study
Description: (§2) The normal chow-fed mice were divided into three treatment groups. The cholesterol-enriched chow-fed mice were divided into three treatment groups. […] One chow-fed group and one cholesterol-enriched chow-fed group received subcutaneous injections of saline twice weekly for 6 weeks. The saline-injected groups served as the control groups to which the corresponding oligonucleotide-treated groups were compared.

[5] = tested on: human CETP mRNA; assay: Liver CETP mRNA in huCETP transgenic mice, normal or cholesterol-enriched chow (Example 6); type: in vivo; conditions: 50 mg/kg s.c. twice per week for 6 weeks, relative to PBS control
Method: Male huCETP transgenic mice were maintained on a 12-hour light/dark cycle. One group of mice was fed ad libitum normal Purina mouse chow and a second group was fed 0.5% cholesterol-enriched chow (Harlan Teklad TD.97234, Harlan Laboratories, Indianapolis, Ind.). Animals were acclimated for at least 7 days in the research facility before initiation of the experiment. Antisense oligonucleotides (ASOs) were prepared in buffered saline (PBS) and sterilized by filtering through a 0.2 micron filter. Oligonucleotides were dissolved in 0.9% PBS for injection.
as §2
Twenty four hours after the final dose, the animals were sacrificed and liver tissue was isolated. Liver RNA was isolated for real-time PCR analysis of CETP. The primer probe set hCETP was used to measure CETP levels. As presented in Table 16, treatment with antisense oligonucleotides reduced CETP mRNA expression. The RNA expression levels were normalized to murine Cyclophilin. The results are expressed as percent inhibition of CETP mRNA, relative to the PBS control. There was no difference in inhibition of CETP mRNA levels in normal chow-fed and cholesterol-enriched chow fed mice.

ISIS 141923: CCTTCCCTGAAGGTTCCTCC, 5-10-5 MOE gapmer, a control oligonucleotide which has no known murine target (sugars from the 5' end e5 d10 e5, backbone and methylation of C not given here) [reference compound]
Percent inhibition of liver CETP mRNA expression, PPset hCETP ([1]; Dose 50 mg/kg/wk): 0% | Percent inhibition of liver CETP mRNA expression, PPset hCETP2_LTS00182 ([1]; Dose 50 mg/kg/wk): 0% | Percent inhibition of liver mRNA expression, ABCA1 ([2]; Dose 50 mg/kg/wk): +16%

ISIS 349511: 5-10-5 MOE gapmer CCCGACCTCCTTGGAGACTT (sugars from the 5' end e5 d10 e5, backbone and methylation of C not given here)
Percent inhibition of liver CETP mRNA expression [3]: 70% | Kidney weight ([4]; Cholesterol chow): 305 mg | Liver weight ([4]; Cholesterol chow): 1.4 g | Spleen weight ([4]; Cholesterol chow): 80 mg | Kidney weight ([4]; Normal chow): 248 mg | Liver weight ([4]; Normal chow): 1.0 g | Spleen weight ([4]; Normal chow): 74 mg | Percent inhibition of liver CETP mRNA expression ([5]; Cholesterol chow): 88% | Percent inhibition of liver CETP mRNA expression ([5]; Normal chow): 89%

ISIS 349517: 5-10-5 MOE gapmer CAGCACTTTAATGCCAGTGG (sugars from the 5' end e5 d10 e5, backbone and methylation of C not given here)
Percent inhibition of liver CETP mRNA expression, PPset hCETP ([1]; Dose 1.5 mg/kg/wk): 59% | Percent inhibition of liver CETP mRNA expression, PPset hCETP2_LTS00182 ([1]; Dose 1.5 mg/kg/wk): 59% | Percent inhibition of liver CETP mRNA expression, PPset hCETP ([1]; Dose 5 mg/kg/wk): 87% | Percent inhibition of liver CETP mRNA expression, PPset hCETP2_LTS00182 ([1]; Dose 5 mg/kg/wk): 87% | Percent inhibition of liver CETP mRNA expression, PPset hCETP ([1]; Dose 15 mg/kg/wk): 91% | Percent inhibition of liver CETP mRNA expression, PPset hCETP2_LTS00182 ([1]; Dose 15 mg/kg/wk): 95% | Percent inhibition of liver CETP mRNA expression, PPset hCETP ([1]; Dose 50 mg/kg/wk): 92% | Percent inhibition of liver CETP mRNA expression, PPset hCETP2_LTS00182 ([1]; Dose 50 mg/kg/wk): 96% | Percent inhibition of liver CETP mRNA expression [3]: 86% | Percent inhibition of liver mRNA expression, ABCA1 ([2]; Dose 1.5 mg/kg/wk): +6% | Percent inhibition of liver mRNA expression, ABCA1 ([2]; Dose 5 mg/kg/wk): +15% | Percent inhibition of liver mRNA expression, ABCA1 ([2]; Dose 15 mg/kg/wk): −6% | Percent inhibition of liver mRNA expression, ABCA1 ([2]; Dose 50 mg/kg/wk): −15% | Kidney weight ([4]; Cholesterol chow): 317 mg | Liver weight ([4]; Cholesterol chow): 1.8 g | Spleen weight ([4]; Cholesterol chow): 93 mg | Kidney weight ([4]; Normal chow): 279 mg | Liver weight ([4]; Normal chow): 1.6 g | Spleen weight ([4]; Normal chow): 113 mg | Percent inhibition of liver CETP mRNA expression ([5]; Cholesterol chow): 98% | Percent inhibition of liver CETP mRNA expression ([5]; Normal chow): 95%
